Source: patent US5245050A, “Derivatives of physiologically active substance ML-236B and process for production thereof” (Tobishi Yakuhin Kogyo Kabushiki Kaisha, priority 1988, dated 1993)

Target: T1, HMG-CoA reductase (Rattus norvegicus, UniProt P51639)
T1 construct: 0.6 mg/ml of rat liver microsome fraction; from tissue; host or cells: rat liver (microsome fraction)
T1 sequence (P51639 1-887): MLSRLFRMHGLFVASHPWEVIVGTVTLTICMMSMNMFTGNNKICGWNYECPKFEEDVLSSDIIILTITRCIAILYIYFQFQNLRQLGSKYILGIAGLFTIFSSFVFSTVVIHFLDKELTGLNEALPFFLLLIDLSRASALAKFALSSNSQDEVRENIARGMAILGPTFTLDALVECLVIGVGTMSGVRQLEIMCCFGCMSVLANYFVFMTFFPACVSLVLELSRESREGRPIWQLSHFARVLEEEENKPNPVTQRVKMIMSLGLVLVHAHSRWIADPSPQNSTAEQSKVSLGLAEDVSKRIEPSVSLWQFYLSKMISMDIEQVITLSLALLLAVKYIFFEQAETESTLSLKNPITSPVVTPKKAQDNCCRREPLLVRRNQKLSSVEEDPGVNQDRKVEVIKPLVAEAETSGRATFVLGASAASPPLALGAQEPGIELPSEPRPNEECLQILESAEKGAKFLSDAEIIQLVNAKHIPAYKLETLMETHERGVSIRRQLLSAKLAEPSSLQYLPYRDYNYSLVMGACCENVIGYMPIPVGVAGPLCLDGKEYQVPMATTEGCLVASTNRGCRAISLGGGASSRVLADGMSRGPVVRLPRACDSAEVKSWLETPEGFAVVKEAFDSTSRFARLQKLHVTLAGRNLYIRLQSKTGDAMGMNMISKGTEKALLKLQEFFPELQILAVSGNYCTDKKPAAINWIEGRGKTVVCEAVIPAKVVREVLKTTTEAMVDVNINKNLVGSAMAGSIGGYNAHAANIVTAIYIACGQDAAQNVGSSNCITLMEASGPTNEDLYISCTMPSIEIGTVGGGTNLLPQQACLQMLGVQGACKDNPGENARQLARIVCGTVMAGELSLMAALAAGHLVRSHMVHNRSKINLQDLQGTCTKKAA
Assay: HMG-CoA reductase inhibitory activity ([14C]HMG-CoA to [14C]mevalonic acid, rat liver microsome fraction)
Assay type: biochemical
Details: for remaining activity at 0.1 µg/mL: 0.1 μg/ml; for remaining activity at 10 µg/mL: 10 μg/ml; for IC50: rat liver microsome fraction, 37° C., 30 minutes, read-out: I50 (amount of sample necessary to inhibit the HMG-CoA reductase activity to 50%) (converted)
Method: The HMG-CoA reductase activity can be determined by using [^14 C] HMG-CoA as a substrate and measuring the resulting [^14 C] mevalonic acid (Kuroda and Endo, Biochem Biophys Acta, 486, 70-81), as described in detail in the following.
A reaction mixture contains 100 mM of potassium phosphate buffer (pH 7.4), 10 mM of EDTA, 10 mM of dithiothreitol, 10 mM of NADPH, 0.11 mM of DL-[3-^14 C] HMG-CoA (4.5 mCi/mmol), and 0.6 mg/ml of rat liver microsome fraction. The final volume of reaction mixture is 50 μl including 1 μl of a methanol solution of a test sample. A reaction is started by adding the substrate HMG-CoA, continued at 37° C. for 30 minutes, and terminated by adding 10 μl of 2N hydrochloric acid solution To this reaction mixture is added 20 μl of 100 mM [5-^3 H] mevaronic acid (22.7 μCi/mmol), and the reaction is carried out at 37° C. for a further 15 minutes. Using 40 μl of this reaction mixture as a carrier, 5 μl of 200 mM mevaronic acid (lactone type) is spotted on a silica gel plate, and after development by benzene/acetone (1:1) mixture, a spot of mevaronic acid is peeled off and suspended in a liquid scintillator to measure the radio activity thereof. The inhibitory activity is expressed by an amount of a sample necessary to inhibit the HMG-CoA reductase activity to 50% (I50 value).

[1] = read-out: Enzyme activity (% relating to control)

Row | remaining activity at 0.1 µg/mL [1] [%] | remaining activity at 10 µg/mL [1] [%] | IC50 [nM] | remaining activity at 1 µg/mL (1 μg/ml, read-out: Enzyme activity (% relating to control)) [%] | Compound
1 | 98 | 30 | > 2040 |  | CCC(C)C(=O)OC1CCC2C(Cl)(Cl)C23C=CC(C)C(CCC(O)CC(O)CC(N)=O)C13 (stereo not drawn) [(7)]
2 | 63 | 7.6 | 544 |  | CCC(C)C(=O)OC1CCC2CC23C=CC(C)C(CCC2CC(O)CC(=O)O2)C13 (stereo not drawn) [(4)]
3 | 74 |  | 681 | 27 | CCC(C)C(=O)OC1CCC2C(F)(F)C23C=CC(C)C(CCC2CC(O)CC(=O)O2)C13 (stereo not drawn) [(1)]
4 | 71 | 4.7 | 683 |  | CCC(C)C(=O)OC1CCC2C(Cl)C23C=CC(C)C(CCC2CC(O)CC(=O)O2)C13 (stereo not drawn) [Compound (6)]
